Data on three compounds can be found in US12391671B2, “Allosteric EGFR inhibitors and methods of use thereof” (Dana-Farber Cancer Institute, Inc., priority 2019, dated 2025).

Where a name gives a salt, the structure may show the parent alone.

For test [1], the system named is EGFR mutant L858R Ba/F3 cells. Kind of test: Ba/F3 cell proliferation model (Cell Titer Glo), EGFR L858R. It is filed as cell-based, murine. The following applies: Mus musculus, BaF3; single agent, 72 hours; read-out: Cell IC50 BaF3 EGFR L858R. The method, boiled down: (§1)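 Retrovirally transduced Ba/F3 cells exposed 72 h to compound alone or with 1 μg/mL cetuximab, triplicate points, repeated at least three times. Viability by Cell Titer Glo luminescence (ATP); curves fitted by non-linear sigmoidal dose-response regression.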

Test [2] relates to EGFR mutant L858R/T790M Ba/F3 cells. Kind of test: Ba/F3 cell proliferation model (Cell Titer Glo), EGFR L858R/T790M. The class given is cell-based, murine. The following applies: Mus musculus, BaF3; single agent, 72 hours; read-out: Cell IC50 BaF3 EGFR L858R/T790M. The method, boiled down: as §1
In general terms: ATP-based viability assays read luminescence as a measure of living cells.

For another test, the target named is EGFR L858R (Homo sapiens (Human), UniProt P00533, L858R). Description: HTRF-based EGFR biochemical assay (L858R). Particulars: 100 μM ATP, enzyme 0.1 nM. The method in brief: (§2)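 Mutant EGFR (L858R 0.1 nM, L858R/T790M 0.02 nM) preincubated 30 min with compounds at room temperature in HEPES pH 7.0 buffer with Mg2+/Mn2+, then reacted 20 min with 1 μM biotinylated tyrosine kinase peptide and 100 μM ATP. Phosphorylation read by HTRF (Eu-cryptate anti-phosphotyrosine/streptavidin-XL665, 665/620 nm) after EDTA quench.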
(Time-resolved FRET reads energy transfer from a long-lived donor to a nearby acceptor.)

A further test concerns the target EGFR L858R/T790M (Homo sapiens (Human), UniProt P00533, L858R/T790M). Kind of test: HTRF-based EGFR biochemical assay (L858R/T790M). Particulars: 100 μM ATP, enzyme 0.02 nM. The method in brief: as §2
For test [3], the system named is NSCLC resistant to gefitinib or erlotinib. The following applies: patients with NSCLC that have developed resistance to gefitinib or erlotinib; cited from earlier work.

Chain of EGFR L858R (P00533 25-1210 L858R): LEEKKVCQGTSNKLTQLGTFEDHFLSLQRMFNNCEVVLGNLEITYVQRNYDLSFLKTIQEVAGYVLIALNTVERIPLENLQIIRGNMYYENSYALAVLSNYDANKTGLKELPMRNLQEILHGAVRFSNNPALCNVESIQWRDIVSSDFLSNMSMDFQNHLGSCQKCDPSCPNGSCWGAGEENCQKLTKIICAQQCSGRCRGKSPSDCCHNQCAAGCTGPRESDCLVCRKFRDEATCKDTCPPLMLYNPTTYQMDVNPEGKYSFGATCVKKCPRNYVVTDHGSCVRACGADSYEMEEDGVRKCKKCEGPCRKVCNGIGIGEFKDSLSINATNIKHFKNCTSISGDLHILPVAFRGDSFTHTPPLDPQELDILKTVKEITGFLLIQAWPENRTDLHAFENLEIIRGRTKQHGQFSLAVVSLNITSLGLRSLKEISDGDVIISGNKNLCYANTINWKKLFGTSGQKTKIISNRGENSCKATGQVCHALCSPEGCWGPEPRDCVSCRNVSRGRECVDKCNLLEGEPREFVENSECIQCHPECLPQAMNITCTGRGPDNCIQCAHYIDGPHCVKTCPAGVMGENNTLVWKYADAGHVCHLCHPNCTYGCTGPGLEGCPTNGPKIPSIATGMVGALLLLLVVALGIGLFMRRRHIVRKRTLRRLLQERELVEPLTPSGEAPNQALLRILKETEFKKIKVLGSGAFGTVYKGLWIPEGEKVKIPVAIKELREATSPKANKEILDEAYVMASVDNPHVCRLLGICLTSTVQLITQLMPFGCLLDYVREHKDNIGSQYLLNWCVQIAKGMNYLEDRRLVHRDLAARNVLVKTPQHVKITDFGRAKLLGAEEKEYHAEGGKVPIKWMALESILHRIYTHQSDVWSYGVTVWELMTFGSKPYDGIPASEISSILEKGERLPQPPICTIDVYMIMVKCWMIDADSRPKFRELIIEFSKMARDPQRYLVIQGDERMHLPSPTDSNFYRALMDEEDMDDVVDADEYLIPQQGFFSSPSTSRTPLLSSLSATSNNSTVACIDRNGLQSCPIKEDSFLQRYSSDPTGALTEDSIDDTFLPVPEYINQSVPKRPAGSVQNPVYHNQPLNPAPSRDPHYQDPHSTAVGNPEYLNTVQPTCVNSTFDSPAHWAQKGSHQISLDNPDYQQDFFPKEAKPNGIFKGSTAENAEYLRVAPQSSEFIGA
Chain of EGFR L858R/T790M (P00533 25-1210 T790M/L858R): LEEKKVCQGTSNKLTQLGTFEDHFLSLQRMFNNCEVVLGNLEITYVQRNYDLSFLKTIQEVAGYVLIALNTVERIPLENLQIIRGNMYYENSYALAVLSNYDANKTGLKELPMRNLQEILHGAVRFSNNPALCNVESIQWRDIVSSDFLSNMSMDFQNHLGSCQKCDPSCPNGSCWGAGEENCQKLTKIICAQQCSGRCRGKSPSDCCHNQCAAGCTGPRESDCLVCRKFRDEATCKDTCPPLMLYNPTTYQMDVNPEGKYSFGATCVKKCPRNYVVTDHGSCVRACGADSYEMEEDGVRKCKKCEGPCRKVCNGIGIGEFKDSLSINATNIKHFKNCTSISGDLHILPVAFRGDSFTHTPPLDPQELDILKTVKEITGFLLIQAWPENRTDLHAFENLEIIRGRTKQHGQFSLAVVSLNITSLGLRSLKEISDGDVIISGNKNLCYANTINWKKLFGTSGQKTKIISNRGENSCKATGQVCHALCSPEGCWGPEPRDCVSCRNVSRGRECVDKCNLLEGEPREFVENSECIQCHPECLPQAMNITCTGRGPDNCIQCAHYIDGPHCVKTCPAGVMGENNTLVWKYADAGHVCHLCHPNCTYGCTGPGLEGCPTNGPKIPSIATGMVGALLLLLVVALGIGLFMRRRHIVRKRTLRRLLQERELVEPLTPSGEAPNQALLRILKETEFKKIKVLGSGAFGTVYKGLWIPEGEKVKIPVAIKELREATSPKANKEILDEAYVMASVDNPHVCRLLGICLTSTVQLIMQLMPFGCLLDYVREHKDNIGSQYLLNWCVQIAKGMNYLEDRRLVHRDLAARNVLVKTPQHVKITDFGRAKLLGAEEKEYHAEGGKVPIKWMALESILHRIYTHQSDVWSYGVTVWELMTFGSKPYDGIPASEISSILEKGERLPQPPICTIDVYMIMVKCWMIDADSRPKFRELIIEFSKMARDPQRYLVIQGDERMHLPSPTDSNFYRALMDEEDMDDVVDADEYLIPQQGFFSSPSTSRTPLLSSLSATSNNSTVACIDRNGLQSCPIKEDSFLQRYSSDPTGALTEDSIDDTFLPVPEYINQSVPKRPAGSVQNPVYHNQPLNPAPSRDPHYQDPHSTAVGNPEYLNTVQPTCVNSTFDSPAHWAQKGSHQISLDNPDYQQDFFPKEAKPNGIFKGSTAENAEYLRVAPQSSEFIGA

Consider `CN1CCC(c2ccc(-c3cc4nn(C(c5nc6ccccc6[nH]5)c5cc(F)ccc5O)cc4cc3F)cc2)CC1` (stereo not drawn) [Compound 118, 2-((1H-Benzo[d]imidazol-2-yl)(5-fluoro-6-(4-(1-methylpiperidin-4-yl)phenyl)-2H-indazol-2-yl)methyl)-4-fluorophenol], for which the IC50 came out at 4080 nM in test [1], 1310 nM in test [2], 16 nM at EGFR L858R and 6 nM against EGFR L858R/T790M.

On to `CN1CCC(c2ccc(-c3cc(F)c4cn(C(c5nc6ccccc6[nH]5)c5cc(F)ccc5O)nc4c3)cc2)CC1` (stereo not drawn) [Compound 119, 2-((1H-Benzo[d]imidazol-2-yl)(4-fluoro-6-(4-(1-methylpiperidin-4-yl)phenyl)-2H-indazol-2-yl)methyl)-4-fluorophenol; trifluoroacetate], for which the IC50 in test [1] amounted to 780 nM; in test [2], 420 nM; against EGFR L858R, 11 nM; against EGFR L858R/T790M, 3 nM.

As for `CN(C)C/C=C/C(=O)Nc1cc2c(Nc3ccc(F)c(Cl)c3)ncnc2cc1O[C@H]1CCOC1` [afatinib], the “RR (response rate)” value in test [3] was “less than 10%”.
